Consider 44 compounds from ChEMBL document CHEMBL1201862, “PubChem BioAssay data set” (2004).

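Protocol summary: plate cells (96-well), add compound at 5 concentrations, incubate 48 h, interpolate endpoints linearly. Here, GI50 denotes the concentration required for 50% inhibition of growth.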 The source made the active and inactive calls. No stated cut-off is given here; in the data, active = GI50 up to about 1.1 µM and inactive = higher.

Test systems include Hs-578T; BT-549; NCI/ADR-RES; MCF7; LXFL 529; M19-MEL; DLD-1.
Common to all, as to experiment: NCI-60 cell line screen, 48 h

In the case of `O=C1c2ccccc2C(=O)c2c(OCC3CO3)ccc(OCC3CO3)c21` (stereo unspecified), the GI50 was 16.2 µM (inactive) in the test on Hs-578T, 6.28 µM (inactive) in the test with BT-549, 2.21 µM (inactive) in the test with NCI/ADR-RES and 0.195 µM (active) with MCF7.

As for `NS(=O)(=O)c1ccc(/N=N/c2ncccc2O)cc1`, the GI50 in the test with Hs-578T was > 100 µM (inactive); with BT-549, > 100 µM (inactive); in the test on NCI/ADR-RES, > 100 µM (inactive); with MCF7 it was 57.9 µM (inactive).

`Cc1cc(=O)oc2cc(O)c(CN(C)CC(=O)O)cc12`: the GI50 in the test with Hs-578T, in the test with BT-549, in the test with NCI/ADR-RES and in the test with MCF7 was > 100 µM (inactive) in each case.

As for `C=CCNS(=O)(=O)c1ncnc2[nH]cnc12`, the GI50 with Hs-578T, in the test on BT-549, in the test with NCI/ADR-RES and in the test on MCF7 was > 100 µM (inactive) each time.

`CC(=O)ON(C(C)=O)c1ccc(-c2nc3ccccc3s2)cc1`: the GI50 was 21.2 µM (inactive) in the test with Hs-578T, 37.6 µM (inactive) in the test with BT-549 and 16.3 µM (inactive) in the test with NCI/ADR-RES.

Turning to `Cc1nc(O)c(Cc2ccccc2O)c(-c2ccccc2)n1`, the GI50 in the test with Hs-578T, with BT-549, in the test with NCI/ADR-RES and in the test with MCF7 was > 100 µM (inactive) in each case.

Consider `Cc1ccc(S[C@@H](C)[C@@](O)(CF)CN(Cc2ccccc2)C(=O)C(F)(F)F)cc1`, for which the GI50 was 18.3 µM (inactive) with Hs-578T, 19.6 µM (inactive) with BT-549, 20.6 µM (inactive) in the test with NCI/ADR-RES and 20.8 µM (inactive) in the test with MCF7.

With `CC(=O)NNc1nc(C)c(C(=O)NNC(=O)C(=O)Nc2ccc(Cl)c([N+](=O)[O-])c2)s1`, the GI50 with LXFL 529 was 27.2 µM (inactive); with M19-MEL, 67.8 µM (inactive).

With `CCOC(=O)Nc1cc(NC(/C=N/NC(C)=O)C(=O)OCC)c(OC)cc1NC(C)=O` (stereo unspecified), the GI50 with Hs-578T, with BT-549, in the test on NCI/ADR-RES and in the test on MCF7 was > 100 µM (inactive) in each case.

For `COc1ccc2nc(-c3ccccc3)cc(OCC(=O)O)c2c1`, the GI50 in the test with Hs-578T, with BT-549, in the test on NCI/ADR-RES and with MCF7 was > 100 µM (inactive) each time.

Consider `O=C1N[C@@H](c2c[nH]c3ccc(Br)cc23)C(=O)N[C@H]1c1c[nH]c2ccc(Br)cc12`, for which the GI50 in the test on Hs-578T was 11 µM (inactive); with BT-549 it was 13.6 µM (inactive); in the test with NCI/ADR-RES it was 31.4 µM (inactive); in the test with MCF7, 12.6 µM (inactive).

Consider `COC(=O)c1nsc(OC)c1Cl`, for which the GI50 in the test on Hs-578T, in the test on BT-549, with NCI/ADR-RES and in the test on MCF7 was > 100 µM (inactive) each time.

For `C=C(C)C1CCC2=CC(CC3(C)OC3C3=CC(C(=O)OC)=C(C1)O3)OC2=O` (stereo unspecified), the GI50 with BT-549, in the test on NCI/ADR-RES and with MCF7 was > 100 µM (inactive) each time.

For `CCCCc1ccc(Nc2nc3c(ncn3COCCBr)c(=O)[nH]2)cc1`, the GI50 in the test on Hs-578T, in the test on BT-549, with NCI/ADR-RES and with MCF7 was > 100 µM (inactive) in each case.

Consider `NC(=O)c1ccc(NCC2=CC(=O)C=CC2=O)cc1`, for which the GI50 is 30.3 µM (inactive) in the test on Hs-578T, 15.5 µM (inactive) with BT-549, 25.6 µM (inactive) in the test on NCI/ADR-RES and 23 µM (inactive) with MCF7.

For `Cc1ccc(S(=O)(=O)N2CCCSCCSCCCSCC2)cc1`, the GI50 in the test on BT-549, in the test with NCI/ADR-RES and in the test with MCF7 was > 100 µM (inactive) in each case.

For the compound `CCOC(=O)c1c(C)n(Cc2ccccc2)c(=O)c2ccccc2c(=O)c2c(=O)ccc(=O)c1=2`, the GI50 in the test with Hs-578T was > 100 µM (inactive); with NCI/ADR-RES it was 92.7 µM (inactive).

As to `COc1cc(C2c3cc4c(cc3C(O)C3CCC(=O)N23)OCO4)cc(OC)c1OC` (stereo unspecified), the GI50 with Hs-578T is 34.5 µM (inactive); with BT-549, 14.9 µM (inactive); with NCI/ADR-RES, 53 µM (inactive); in the test with MCF7 it was 16.5 µM (inactive).

As to `COc1cc(C2OC(N)=C(C#N)C3=C2C(C)CCC3)cc(OC)c1OC` (stereo unspecified), the GI50 was 55.1 µM (inactive) in the test with Hs-578T, > 100 µM (inactive) with BT-549, > 100 µM (inactive) in the test with NCI/ADR-RES and > 100 µM (inactive) in the test with MCF7.

On to `CO[C@@H]1C[C@H]2[C@@H]3CC[C@H]([C@H](C)COC(C)=O)[C@@]3(C)CC[C@@H]2[C@@]2(C)CC[C@H]3C[C@]312`, for which the GI50 in the test with Hs-578T was > 100 µM (inactive); in the test with NCI/ADR-RES it was > 100 µM (inactive); in the test on MCF7, 81.3 µM (inactive).

With `C=C1C(=O)OC2/C=C(\C)C(=O)CC3OC(C)(C)OC3(C)CC(OC(=O)/C(C)=C/C)C12` (stereo unspecified), the GI50 in the test on Hs-578T is 28.9 µM (inactive); in the test with BT-549, 10.4 µM (inactive); in the test with MCF7 it was 7.46 µM (inactive).

Turning to `CCCc1c(OC)c(=O)c2c(OC)cc(OC)c3c4c(OC)cc(OC)c5c(=O)c(OC)c(CCC)c(c1c23)c54`, the GI50 is 15 µM (inactive) in the test on BT-549, 21.2 µM (inactive) in the test on NCI/ADR-RES and 17.1 µM (inactive) with MCF7.

As to `CN/C(=N\c1ccc(OC)c2ccccc12)SC`, the GI50 in the test with Hs-578T, in the test on BT-549, in the test with NCI/ADR-RES and in the test with MCF7 was > 10 µM (inactive) in each case.

Regarding `COc1ccc2c(c1)SC1=Nc3sc4cc(OC)ccc4[n+]3CN12`, the GI50 in the test on Hs-578T was 44.8 µM (inactive); in the test on BT-549 it was 66.8 µM (inactive); in the test on NCI/ADR-RES it was 99.3 µM (inactive); in the test on MCF7, 5.25 µM (inactive).

As for `CCOC(=O)c1ccc(NC(NC(=O)CC)(C(F)(F)F)C(F)(F)F)cc1`, the GI50 in the test with Hs-578T, in the test with BT-549, in the test with NCI/ADR-RES and in the test on MCF7 was > 100 µM (inactive) throughout.

As to `COC(=O)C1=C(C(=O)OC)C2=S(SC3=C2CCCC3)S1` (stereo unspecified), the figures for the GI50 in the test with LXFL 529, in the test on DLD-1 and in the test on M19-MEL were 5.05 µM (inactive), 24 µM (inactive) and 26.5 µM (inactive), respectively.

With `Cc1cc(C)c2c(=O)n(CN3CCC(C#N)(c4ccccc4)CC3)sc2n1`, the GI50 in the test with Hs-578T was 47.8 µM (inactive); with BT-549, 91.2 µM (inactive); in the test with NCI/ADR-RES, 51.1 µM (inactive); in the test on MCF7 it was 62.5 µM (inactive).

Turning to `O=C1C[C@H]2[C@@H](O1)[C@@H](O)CN1C(=O)c3ccccc3[C@H]21`, the GI50 in the test with BT-549, in the test on NCI/ADR-RES and in the test with MCF7 was > 100 µM (inactive) in each case.

Regarding `CCCN(CCc1ccc(-c2ccccc2)cc1)CCc1ccc2nn[nH]c2c1`, the GI50 was 17.4 µM (inactive) in the test on Hs-578T, 8.2 µM (inactive) in the test on BT-549, 14.7 µM (inactive) with NCI/ADR-RES and 11.6 µM (inactive) in the test on MCF7.

For the compound `CC(=O)N(CN1C(=O)CCC1C(=O)O)c1ccccc1` (stereo unspecified), the GI50 with Hs-578T is > 53.3 µM (inactive); in the test with BT-549, > 100 µM (inactive); with NCI/ADR-RES, 29.9 µM (inactive); in the test with MCF7 it was > 56.8 µM (inactive).

For `O=S(=O)(c1ccccc1)n1c2cc3cccnc3nc2c2cccnc21`, the GI50 in the test on Hs-578T was > 100 µM (inactive); in the test with BT-549, > 100 µM (inactive); with NCI/ADR-RES it was > 100 µM (inactive); with MCF7, 46 µM (inactive).

On to `CCc1cccc(C(C)C)c1NC1=C([n+]2ccc(C)cc2)C(=O)c2ccccc2C1=O.[O-][Cl+3]([O-])([O-])[O-]`, for which the GI50 in the test with Hs-578T was 12.8 µM (inactive); in the test on NCI/ADR-RES, 4.92 µM (inactive); in the test with MCF7 it was 0.27 µM (active).

For the compound `COc1cc2oc(=O)cc(C)c2cc1OC`, the GI50 in the test on Hs-578T, with NCI/ADR-RES and in the test with MCF7 was > 100 µM (inactive) throughout.

Turning to `Oc1ccc(-c2nn3c(CCCCCCCCc4nnc5sc(-c6ccc(O)cc6)nn45)nnc3s2)cc1`, the GI50 in the test with Hs-578T, with BT-549, in the test with NCI/ADR-RES and with MCF7 was > 100 µM (inactive) each time.

For the compound `CC1OC(n2ccc3ccc([N+](=O)[O-])cc32)C(O)C(O)C1O` (stereo unspecified), the GI50 with LXFL 529, with DLD-1 and in the test with M19-MEL was > 100 µM (inactive) in each case.

Consider `CCN(CC)/C(SCc1ccccc1)=C(\C(Cl)=C(Cl)Cl)[N+](=O)[O-]`, for which the GI50 in the test on NCI/ADR-RES is 17.1 µM (inactive); with MCF7 it was 16.8 µM (inactive).

Regarding `O=C/C=C/c1ccco1`, the GI50 in the test on Hs-578T, with BT-549, with NCI/ADR-RES and in the test on MCF7 was > 100 µM (inactive) each time.

Take `CCOC(=O)c1c(O)cc(=O)[nH]c1N1CCOCC1`: the GI50 with BT-549, with NCI/ADR-RES and in the test on MCF7 was > 100 µM (inactive) in each case.

For `COC(=O)NC(Cc1ccccc1)NC(=O)OC(C)(C)C` (stereo unspecified), the GI50 with Hs-578T, with BT-549, in the test with NCI/ADR-RES and in the test with MCF7 was > 100 µM (inactive) in each case.

As to `C=C(C)C(O)C(O)c1c(OC)ccc2ccc(=O)oc12` (stereo unspecified), the GI50 in the test on Hs-578T, in the test on BT-549, in the test on NCI/ADR-RES and in the test on MCF7 was > 100 µM (inactive) in each case.

With `CC(CN(C)C)C(O)(c1ccccc1)c1ccccc1` (stereo unspecified), the GI50 in the test on Hs-578T, in the test on BT-549, in the test on NCI/ADR-RES and in the test with MCF7 was > 100 µM (inactive) throughout.

With `CC1(C)C2CCC1(C)C(N/C(Sc1ccccc1)=C(/C(Cl)=C(Cl)Cl)[N+](=O)[O-])C2` (stereo unspecified), the GI50 was 12.4 µM (inactive) in the test on BT-549, 14 µM (inactive) in the test with NCI/ADR-RES and 11.2 µM (inactive) with MCF7.

As to `C#CCN(Cc1ccc2[nH]c(N)nc(=O)c2c1)c1ccc(C(=O)NC(CCC(=O)O)C(=O)O)cc1` (stereo unspecified), the results for the GI50 in the test on BT-549, in the test with NCI/ADR-RES and in the test on MCF7 were 8.11 µM (inactive), 36.6 µM (inactive) and 5.13 µM (inactive), respectively.

Turning to `Cc1ncc([N+](=O)[O-])n1CCNC(=O)Cn1ccnc1[N+](=O)[O-]`, the GI50 with Hs-578T, in the test on BT-549, in the test on NCI/ADR-RES and with MCF7 was > 100 µM (inactive) in each case.
